Literature values in patent publication US20080226653A1, “Inhibition of Platelet Aggregation” (THE UNIVERSITY OF MANITOBA, priority 2006, published 2008).

Conditions: clinical trials (Patrono et al., 1993)

CC(=O)Oc1ccccc1C(=O)O [aspirin, Aspirin]
efficacy in preventing chronic complications in diabetic patients: only limited efficacy
